Test results as given in patent US9193731B2, “Antimicrobial compounds and methods of making and using the same” (Melinta Therapeutics, Inc., priority 2009, dated 2015).

System: Escherichia coli strain ATCC25922
Test: standard microdilution assay to determine minimum inhibitory concentrations (MICs)
Type: cell-based
Settings: for E. coli ATCC25922 MIC: Escherichia coli strain ATCC25922, microdilution; for MIC: Escherichia coli, ATCC25922, Escherichia coli strain ATCC25922, microdilution, read-out: E. coli ATCC25922 MIC
Method: Minimum inhibitory concentrations (MICs) are determined by the microdilution method, typically in a final volume of 100 microliters, according to protocols outlined by The Clinical and Laboratory Standards Institute [CLSI; formerly the National Committee for Clinical Laboratory Standards (NCCLS)]. See CLSI: Methods for dilution antimicrobial susceptibility tests for bacteria that grow aerobically; approved standard-fifth edition. Wayne, Pa.: NCCLS; 2000. The assays can be also be performed in microtiter trays according to conventional methodologies as published by the CLSI. See CLSI. Methods for Dilution Antimicrobial Susceptibility Tests for Bacteria That Grow Aerobically; Approved Standard—Seventh Edition. CLSI Document M7-A7 [ISBN 1-56238-587-9] CLSI, 940 West Valley Road, Suite 1400, Wayne Pa. 19087-1898 USA, 2006).
The compounds of the present invention were tested for antimicrobial activity. The compounds were run against Escherichia coli strain ATCC25922 using a standard microdilution assay to determine minimum inhibitory concentrations (MICs). […] A “N/A” means that data is unavailable. It will be recognized by one skilled in the art that the compounds can be assessed against other bacterial organisms and that the presentation of data for activity against Escherichia coli is illustrative and in no way is intended to limit the scope of the present invention. The compounds of the present invention can be assayed against a range of other microorganisms depending upon the performance activity desired to be gathered. Furthermore, the “+”, “−”, and “N/A” representation and the selection of a cutoff value of 16 micrograms/ml is also illustrative and in no way is intended to limit the scope of the present invention.

In the case of `N=C(N)NCCCNC(=O)c1ccc(-n2cc3cc(-c4cccc(CCCCN)c4)[nH]c3nc2=O)cc1` [Compound 1433], the “E. coli ATCC25922 MIC” value is reported as “+ (a “+” indicates that the compound has an MIC value of 16 micrograms/ml or less)”.
With `N=C(N)NCCCNCc1ccc(-n2cc3cc(-c4cc(CCCN)cc(OC(F)(F)F)c4)[nH]c3nc2=O)cc1` [Compound 2058a] the “E. coli ATCC25922 MIC” value was “+ (a “+” indicates that the compound has an MIC value of 16 micrograms/ml or less)”.
`N=C(N)NCCCNC(=O)c1ccc(-n2cc3cc(-c4ccc(S(=O)(=O)N(Cc5cc(OC(F)(F)F)ccc5F)C5CCNCC5)cc4)[nH]c3nc2=O)cc1` [Compound 1090] was tested, and the “E. coli ATCC25922 MIC” value was “+ (a “+” indicates that the compound has an MIC value of 16 micrograms/ml or less)”.
With `N=C(N)NCCCNCc1ccc(-n2cc3cc(-c4cc(OC(F)(F)F)cc(S(=O)(=O)NCCN)c4)[nH]c3nc2=O)cc1` [Compound 2059a] the “E. coli ATCC25922 MIC” value was “+ (a “+” indicates that the compound has an MIC value of 16 micrograms/ml or less)”.
For `NCCCN(CCCN)Cc1ccc(-n2cc3cc(-c4ccc(S(=O)(=O)NC5CCNCC5)cc4F)[nH]c3nc2=O)cc1` [Compound 200], the MIC was under 16 µg/mL.
`N=C(N)N[C@@H]1CCN(Cc2ccc(-n3cc4cc[nH]c4nc3=O)cc2)C1` [Compound 1140] gave an MIC of over 16 µg/mL.
For `N=C(N)NCCCNCC(O)Cn1cc2cc(-c3ccc(S(=O)(=O)NC4CCNCC4)cc3)[nH]c2nc1=O` (stereo not drawn) [Compound 977], the “E. coli ATCC25922 MIC” value was “+ (a “+” indicates that the compound has an MIC value of 16 micrograms/ml or less)”.
`CS(=O)(=O)c1ccc(-c2cn3cc(-c4ccc(CNCCCNC(=N)N)cc4)c(=O)nc3[nH]2)cc1` [Compound 632] was tested, and the MIC was over 16 µg/mL.
For `N=C(N)NCCCNCc1ccc(-n2cc3cc(-c4cncc(CCCCN)c4)[nH]c3nc2=O)cc1` [Compound 2060a], the “E. coli ATCC25922 MIC” value was “+ (a “+” indicates that the compound has an MIC value of 16 micrograms/ml or less)”.
Compound `NCc1ccc(-n2cc3cc(-c4cccc(S(=O)(=O)N(CCn5ccnc5)C5CCNCC5)c4)[nH]c3nc2=O)cc1` [Compound 1157] has an MIC of over 16 µg/mL.
For `NC(N)=NCCCNCc1ccc(-n2cc3cc(-c4ccc(S(=O)(=O)NC5CCNCC5)cc4)oc3nc2=O)cc1` [Compound 1242], the “E. coli ATCC25922 MIC” value was “+ (a “+” indicates that the compound has an MIC value of 16 micrograms/ml or less)”.
With `N=C(N)NCCCNCc1ccc(-n2cc3cc(-c4ccc(S(=O)(=O)N(CC5COc6ccccc6O5)C5CCNCC5)cc4)[nH]c3nc2=O)cc1` (stereo not drawn) [Compound 768] the “E. coli ATCC25922 MIC” value was “+ (a “+” indicates that the compound has an MIC value of 16 micrograms/ml or less)”.
In the case of `N=C(N)NCCCNCc1ccc(-n2cc3cc(-c4ccc(S(=O)(=O)N(CCCN5CCS(=O)(=O)CC5)C5CCNCC5)cc4)[nH]c3nc2=O)cc1` [Compound 855], the “E. coli ATCC25922 MIC” value is reported as “+ (a “+” indicates that the compound has an MIC value of 16 micrograms/ml or less)”.
`CNCc1ccc(-n2cc3cc(-c4ccc(S(=O)(=O)N(CCCN5CCCCC5C)C5CCNCC5)cc4)[nH]c3nc2=O)cc1` (stereo not drawn) [Compound 1039] was tested, and the MIC was over 16 µg/mL.
In the case of `CNCc1ccc(-n2cc3cc(-c4ccc(S(=O)(=O)N(CCCn5cccn5)C5CCNCC5)cc4)[nH]c3nc2=O)cc1` [Compound 1020], the MIC is reported as over 16 µg/mL.
For `N=C(N)NCCCNCc1ccc(-n2cc3cc(-c4cc(C(F)(F)F)cc(S(=O)(=O)NCCN)c4)[nH]c3nc2=O)cc1` [Compound 2067a], the “E. coli ATCC25922 MIC” value was “+ (a “+” indicates that the compound has an MIC value of 16 micrograms/ml or less)”.
`N=C(N)NCCCNCc1ccc(-n2cc3cc(-c4cc(CN5Cc6ccccc6C5)cc(N5CCNCC5)c4)[nH]c3nc2=O)cc1` [Compound 1050] was tested, and the “E. coli ATCC25922 MIC” value was “+ (a “+” indicates that the compound has an MIC value of 16 micrograms/ml or less)”.
In the case of `NCCCNCc1ccc(-n2cc3cc(-c4cc(C(=O)N(CCO)CCO)cc(N5CCNCC5)c4)[nH]c3nc2=O)cc1` [Compound 894], the “E. coli ATCC25922 MIC” value is reported as “− (a “−” indicates that the compound has an MIC value greater than 16 micrograms/ml)”.
With `Cc1cc(-n2cc3cc(-c4ccc(S(=O)(=O)NC5CCCNC5)cc4)[nH]c3nc2=O)ccc1CNCCCNC(=N)N` (stereo not drawn) [Compound 1309] the “E. coli ATCC25922 MIC” value was “+ (a “+” indicates that the compound has an MIC value of 16 micrograms/ml or less)”.
With `N=C(N)NCCCCOc1ccc(-c2cn3cc(-c4ccc(Br)cc4)[nH]c3nc2=O)cc1` [Compound 813] the MIC was over 16 µg/mL.
In the case of `N=C(N)NCCCNCc1ccc(-n2cc3cc(-c4ccc(S(=O)(=O)N(Cc5ccc(Cl)c(Cl)c5)C5CCOCC5)cc4)[nH]c3nc2=O)cc1` [Compound 898], the “E. coli ATCC25922 MIC” value is reported as “− (a “−” indicates that the compound has an MIC value greater than 16 micrograms/ml)”.
`N=C(N)NCCCCc1cc(OC(F)(F)F)cc(-c2cc3cn(-c4ccc(C(NCCCNC(=N)N)C(F)(F)F)cc4)c(=O)nc3[nH]2)c1` (stereo not drawn) [Compound 2082a] was tested, and the “E. coli ATCC25922 MIC” value was “+ (a “+” indicates that the compound has an MIC value of 16 micrograms/ml or less)”.
`N=C(N)NCCCNCc1ccc(-c2cn3cc(-c4ccc(S(=O)(=O)NC5CCNCC5)cc4)[nH]c3nc2=O)cc1` [Compound 772] was tested, and the MIC was under 16 µg/mL.
`N=C(N)NC[C@H](N)C(=O)NCc1ccc(-n2cc3cc(-c4ccc(S(=O)(=O)NC5CCNCC5)cc4)[nH]c3nc2=O)cc1` [Compound 1228] was tested, and the “E. coli ATCC25922 MIC” value was “+ (a “+” indicates that the compound has an MIC value of 16 micrograms/ml or less)”.
`N=C(N)NCCCNCc1ccc(-n2cc3cc(-c4cc(OCC(F)CN)cc(-c5cccc(CN)c5)c4)[nH]c3nc2=O)cc1` (stereo not drawn) [Compound 2030a] was tested, and the “E. coli ATCC25922 MIC” value was “+ (a “+” indicates that the compound has an MIC value of 16 micrograms/ml or less)”.
With `NCc1ccc(-n2cc3cc(-c4ccc(S(=O)(=O)N(Cc5ccc6nonc6c5)C5CCNCC5)cc4)[nH]c3nc2=O)cc1` [Compound 961] the “E. coli ATCC25922 MIC” value was “− (a “−” indicates that the compound has an MIC value greater than 16 micrograms/ml)”.
In the case of `N=C(N)NCCCNCc1ccc(-n2cc3cc(-c4cc(C(=O)NCC(F)(F)F)cc(N5CCNCC5)c4)[nH]c3nc2=O)cc1` [Compound 971], the “E. coli ATCC25922 MIC” value is reported as “+ (a “+” indicates that the compound has an MIC value of 16 micrograms/ml or less)”.
`NCCCCCN1CC=C(n2cc3cc(-c4ccc(F)cc4)[nH]c3nc2=O)CC1` [Compound 508] gave an MIC of over 16 µg/mL.
`NCc1ccc(-n2cc3cc(-c4cccc(OCCNC(N)=O)c4)[nH]c3nc2=O)cc1` [Compound 1142] was tested, and the MIC was over 16 µg/mL.
Compound `NCCCCN1CC(n2cc3c(nc2=O)[nH]c2ccccc23)C1` [Compound 590] has an MIC of over 16 µg/mL.
With `COc1cc(-n2cc3cc(-c4cccc(OCCCN)c4)[nH]c3nc2=O)ccc1CNCCCNC(=N)N` [Compound 1273] the “E. coli ATCC25922 MIC” value was “+ (a “+” indicates that the compound has an MIC value of 16 micrograms/ml or less)”.
`CC1CN(C(=O)c2ccc(-c3cn4cc(-c5ccc(CNCCCN)cc5)c(=O)nc4[nH]3)cc2)CCN1` (stereo not drawn) [Compound 821] was tested, and the “E. coli ATCC25922 MIC” value was “+ (a “+” indicates that the compound has an MIC value of 16 micrograms/ml or less)”.
With `COC(CN)COc1cccc(-c2cc3cn(-c4ccc(CNCCCNC(=N)N)cc4)c(=O)nc3[nH]2)c1` (stereo not drawn) [Compound 1453] the “E. coli ATCC25922 MIC” value was “+ (a “+” indicates that the compound has an MIC value of 16 micrograms/ml or less)”.
Work on `N=C(N)NCCCNCc1ccc(-c2cn3cc(-c4ccc(C(=O)N5CCN(CCO)CC5)cc4)[nH]c3nc2=O)cc1` [Compound 713] yielded an MIC of under 16 µg/mL.
For `N=C(N)NCCCNCc1ccc(-n2cc3cc(-c4ccc(S(=O)(=O)N(CC5CCOCC5)C5CCCNC5)cc4)[nH]c3nc2=O)cc1` (single isomer, unassigned) [Compound 845], the “E. coli ATCC25922 MIC” value was “+ (a “+” indicates that the compound has an MIC value of 16 micrograms/ml or less)”.
In the case of `N=C(N)NCCCOCc1ccc(-c2cn3cc(-c4ccc(Br)cc4)[nH]c3nc2=O)cc1` [Compound 901], the MIC is reported as over 16 µg/mL.
`NCCCNCc1ccc(-c2cn3cc(-c4ccc(C(=O)N5CC6CC5CN6)cc4)[nH]c3nc2=O)cc1` (stereo not drawn) [Compound 742] gave an MIC of under 16 µg/mL.
Compound `N=C(N)NCCCNCc1ccc(-c2cn3cc(-c4ccc(S(=O)(=O)N5CCNCC5)cc4)[nH]c3nc2=O)cc1` [Compound 788] has an MIC of under 16 µg/mL.
`N=C(N)NCCNCc1ccc(-n2cc3cc(-c4ccc(S(=O)(=O)NC5CCNCC5)cc4)[nH]c3nc2=O)cc1` [Compound 1104] was tested, and the “E. coli ATCC25922 MIC” value was “+ (a “+” indicates that the compound has an MIC value of 16 micrograms/ml or less)”.
For `CC(C)NC(=O)CCc1cc2cn(-c3ccc(CNCCCN)cc3)c(=O)nc2[nH]1` [Compound 293], the MIC was over 16 µg/mL.
Work on `NCCCNCc1ccc(-n2cc3cc(CCN4CCS(=O)(=O)CC4)[nH]c3nc2=O)cc1` [Compound 784] yielded an MIC of over 16 µg/mL.
For `N=C(N)NCCCNCc1ccc(-n2cc3cc(-c4ccc(C(NC5CN(C(=N)N)C5)C(F)F)cc4)[nH]c3nc2=O)cc1` (stereo not drawn) [Compound 2006a], the “E. coli ATCC25922 MIC” value was “+ (a “+” indicates that the compound has an MIC value of 16 micrograms/ml or less)”.
